Test results as given in ChEMBL document CHEMBL1201862, “PubChem BioAssay data set” (2004).
Activity calls are given as the source filed them.

What was measured:
[1] = biological target: T1, Microphthalmia-associated transcription factor (Homo sapiens, UniProt O75030); assay: TRPM1 promoter luciferase signal decrease, dose response, MITF inhibitor project, cell-based, SK-MEL-5, cherry-picked, set 3 (AID 493073); format: functional
T1 sequence (O75030 whole entry): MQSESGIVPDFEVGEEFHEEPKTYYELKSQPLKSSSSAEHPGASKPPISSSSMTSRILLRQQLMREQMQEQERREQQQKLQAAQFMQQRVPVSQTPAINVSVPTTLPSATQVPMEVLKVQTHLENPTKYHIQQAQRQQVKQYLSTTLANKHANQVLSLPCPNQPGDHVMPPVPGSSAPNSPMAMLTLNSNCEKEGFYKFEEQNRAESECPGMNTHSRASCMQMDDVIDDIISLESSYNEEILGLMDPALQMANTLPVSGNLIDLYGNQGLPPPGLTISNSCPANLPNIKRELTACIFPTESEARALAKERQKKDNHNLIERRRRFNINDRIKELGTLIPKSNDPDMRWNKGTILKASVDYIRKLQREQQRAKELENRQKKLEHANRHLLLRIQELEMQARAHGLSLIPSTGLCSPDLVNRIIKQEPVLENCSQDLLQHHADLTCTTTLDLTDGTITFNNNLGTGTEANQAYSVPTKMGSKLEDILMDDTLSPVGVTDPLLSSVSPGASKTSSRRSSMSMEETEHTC

Streptokinase A = biological target: T2, Streptokinase A (Streptococcus pyogenes serotype M1, UniProt P10520); assay: S. pyogenes streptokinase expression inhibitors, potency, dose response, plasminogen activation absorbance, OD405 (AID 1914); format: functional, Streptococcus pyogenes M1 GAS;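 further: secreted streptokinase activity via plasminogen activation per viability signal from cell pellet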
T2 sequence (P10520 whole entry): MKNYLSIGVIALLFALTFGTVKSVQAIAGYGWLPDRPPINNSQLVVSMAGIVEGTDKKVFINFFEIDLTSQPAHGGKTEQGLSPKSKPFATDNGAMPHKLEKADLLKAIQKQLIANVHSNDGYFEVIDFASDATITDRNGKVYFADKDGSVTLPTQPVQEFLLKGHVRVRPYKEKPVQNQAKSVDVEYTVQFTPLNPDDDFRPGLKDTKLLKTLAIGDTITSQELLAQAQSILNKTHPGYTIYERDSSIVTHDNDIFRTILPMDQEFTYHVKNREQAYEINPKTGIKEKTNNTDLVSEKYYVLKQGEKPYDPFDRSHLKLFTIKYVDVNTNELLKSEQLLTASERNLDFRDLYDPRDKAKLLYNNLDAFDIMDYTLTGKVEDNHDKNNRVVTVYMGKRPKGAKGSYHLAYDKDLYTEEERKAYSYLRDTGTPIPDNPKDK

Protein RecA = biological target: T3, Protein RecA (Mycobacterium tuberculosis, UniProt P9WHJ3); assay: Fluorescence Cell-Free Homogeneous Dose Retest to Identify Inhibitors of RecA-Intein Splicing Activity. [Related pubchem assays (depositor defined):AID2097, AID2223, AID489010, AID492950]; format: functional
T3 sequence (P9WHJ3 whole entry): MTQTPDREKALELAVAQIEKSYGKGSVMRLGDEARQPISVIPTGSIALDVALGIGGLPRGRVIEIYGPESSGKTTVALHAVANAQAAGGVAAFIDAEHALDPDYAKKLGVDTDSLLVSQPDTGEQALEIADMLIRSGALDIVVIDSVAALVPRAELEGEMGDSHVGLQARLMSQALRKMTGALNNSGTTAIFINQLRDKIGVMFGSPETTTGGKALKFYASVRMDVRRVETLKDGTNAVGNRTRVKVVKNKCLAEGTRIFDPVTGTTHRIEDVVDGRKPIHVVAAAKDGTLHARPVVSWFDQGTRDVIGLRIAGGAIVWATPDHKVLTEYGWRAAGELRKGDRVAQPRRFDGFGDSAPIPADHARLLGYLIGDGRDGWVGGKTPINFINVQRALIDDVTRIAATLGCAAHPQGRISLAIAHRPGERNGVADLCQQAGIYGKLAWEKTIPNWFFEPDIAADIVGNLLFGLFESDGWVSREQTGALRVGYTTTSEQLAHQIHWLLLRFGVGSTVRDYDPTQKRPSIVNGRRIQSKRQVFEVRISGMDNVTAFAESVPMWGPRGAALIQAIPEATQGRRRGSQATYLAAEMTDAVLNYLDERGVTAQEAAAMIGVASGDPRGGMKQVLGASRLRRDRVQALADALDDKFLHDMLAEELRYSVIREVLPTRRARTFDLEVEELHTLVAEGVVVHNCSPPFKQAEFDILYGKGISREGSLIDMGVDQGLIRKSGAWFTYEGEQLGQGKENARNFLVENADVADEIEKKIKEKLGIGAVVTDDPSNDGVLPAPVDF

Streptococcus = assay: Group A Streptococcus viability loss, dose response, counter-screen for streptokinase expression inhibitor project, luminescence, BacTiterGlo (AID 1915); format: functional, organism-based;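 further: potency for reduction of bacterial viability or growth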
[2] = growth suppression of PTEN-null colon cells, dose response, cell-based, HCT116 PTEN knockout (AID 1047); format: functional;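 further: HCT116 colon tumor cells with PTEN knocked out; cells exposed to compound for 60 hours before readout; potency for loss of cell viability measured by luminescence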
[3] = biological target: Fibroblast growth factor receptor 1 (Homo sapiens, UniProt P11362); format: functional
[4] = biological target: Tyrosine-protein kinase Lck (Homo sapiens, UniProt P06239); format: functional;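 further: lck was assayed as one member of a kinase panel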
[5] = biological target: Platelet-derived growth factor receptor alpha (Homo sapiens, UniProt P16234); assay: Navigating the Kinome. Panel member name: PDGFRA; format: functional
[6] = biological target: Dual specificity mitogen-activated protein kinase kinase 2 (Homo sapiens, UniProt P36507); assay: Navigating the Kinome. Panel member name: MAP2K2; format: functional
[7] = biological target: Cyclin-dependent kinase 7 (Homo sapiens, UniProt P50613); format: functional;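 further: value comes from a kinome-wide kinase profiling panel in which CDK7 is one member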
[8] = biological target: Calcium/calmodulin-dependent protein kinase type II subunit alpha (Homo sapiens, UniProt Q9UQM7); assay: Navigating the Kinome. Panel member name: CAMK2A; format: functional
[9] = biological target: Mitogen-activated protein kinase 9 (Homo sapiens, UniProt P45984); format: functional;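 further: value from a kinome panel profiling assay, MAPK9 panel entry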
Aurora kinase B = Aurora kinase B (Homo sapiens, UniProt Q96GD4); format: functional
[10] = biological target: Protein kinase C theta type (Homo sapiens, UniProt Q04759); assay: Navigating the Kinome. Panel member name: PRKCQ; format: functional
[11] = biological target: Cyclin-dependent kinase 8 (Homo sapiens, UniProt P49336); assay: Navigating the Kinome. Panel member name: CDK8; format: functional
[12] = biological target: Leukocyte tyrosine kinase receptor (Homo sapiens, UniProt P29376); assay: Navigating the Kinome. Panel member name: LTK; format: functional
[13] = biological target: Rho-associated protein kinase 1 (Homo sapiens, UniProt Q13464); format: functional;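 further: measured within a broad kinome-wide panel profiling many kinases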

Sequence of Dual specificity mitogen-activated protein kinase kinase 2 (P36507 whole entry): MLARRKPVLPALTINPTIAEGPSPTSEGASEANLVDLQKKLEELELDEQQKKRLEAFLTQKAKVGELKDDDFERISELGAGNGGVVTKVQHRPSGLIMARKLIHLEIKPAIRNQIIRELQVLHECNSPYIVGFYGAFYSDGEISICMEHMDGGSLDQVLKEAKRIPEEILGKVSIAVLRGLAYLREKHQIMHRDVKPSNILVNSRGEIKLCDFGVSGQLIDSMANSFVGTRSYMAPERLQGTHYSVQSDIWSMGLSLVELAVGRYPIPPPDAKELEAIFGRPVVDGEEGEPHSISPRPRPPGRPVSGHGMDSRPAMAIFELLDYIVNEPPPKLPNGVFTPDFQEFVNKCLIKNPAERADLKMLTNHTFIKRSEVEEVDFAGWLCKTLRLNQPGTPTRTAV
Sequence of Mitogen-activated protein kinase 9 (P45984 whole entry): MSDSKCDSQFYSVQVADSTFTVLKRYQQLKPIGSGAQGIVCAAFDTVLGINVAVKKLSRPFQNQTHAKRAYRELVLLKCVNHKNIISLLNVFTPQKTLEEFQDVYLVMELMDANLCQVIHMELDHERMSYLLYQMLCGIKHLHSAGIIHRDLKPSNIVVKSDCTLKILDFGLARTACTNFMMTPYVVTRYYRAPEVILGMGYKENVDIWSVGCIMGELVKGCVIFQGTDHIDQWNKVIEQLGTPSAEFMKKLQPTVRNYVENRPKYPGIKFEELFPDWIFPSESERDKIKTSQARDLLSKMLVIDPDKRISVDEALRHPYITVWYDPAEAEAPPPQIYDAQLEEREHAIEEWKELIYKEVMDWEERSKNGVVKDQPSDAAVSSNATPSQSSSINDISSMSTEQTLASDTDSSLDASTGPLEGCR
Sequence of Tyrosine-protein kinase Lck (P06239 whole entry): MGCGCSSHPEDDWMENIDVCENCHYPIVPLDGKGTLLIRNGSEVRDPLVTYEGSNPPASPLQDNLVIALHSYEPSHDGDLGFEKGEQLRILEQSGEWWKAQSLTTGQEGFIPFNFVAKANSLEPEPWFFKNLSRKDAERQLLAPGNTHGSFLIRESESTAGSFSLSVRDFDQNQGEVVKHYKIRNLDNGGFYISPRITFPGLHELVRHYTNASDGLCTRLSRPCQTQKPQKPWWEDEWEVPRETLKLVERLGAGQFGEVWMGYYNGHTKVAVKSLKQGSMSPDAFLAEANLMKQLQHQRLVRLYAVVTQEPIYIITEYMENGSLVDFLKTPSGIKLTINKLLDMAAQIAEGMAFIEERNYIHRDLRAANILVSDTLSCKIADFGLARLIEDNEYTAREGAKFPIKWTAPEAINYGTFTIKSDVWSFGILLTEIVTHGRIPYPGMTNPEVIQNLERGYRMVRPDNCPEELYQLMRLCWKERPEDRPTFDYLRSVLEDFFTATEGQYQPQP
Sequence of Cyclin-dependent kinase 7 (P50613 whole entry): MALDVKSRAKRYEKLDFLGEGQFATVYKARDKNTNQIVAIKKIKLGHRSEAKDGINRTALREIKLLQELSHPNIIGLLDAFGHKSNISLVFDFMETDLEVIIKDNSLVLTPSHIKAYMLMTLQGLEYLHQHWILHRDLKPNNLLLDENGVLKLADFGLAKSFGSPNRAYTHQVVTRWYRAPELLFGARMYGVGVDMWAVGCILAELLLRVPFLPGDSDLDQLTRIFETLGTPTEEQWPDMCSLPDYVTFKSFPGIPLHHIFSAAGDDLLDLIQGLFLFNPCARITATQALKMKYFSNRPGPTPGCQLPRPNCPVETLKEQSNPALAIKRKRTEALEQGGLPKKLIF
Sequence of Calcium/calmodulin-dependent protein kinase type II subunit alpha (Q9UQM7 whole entry): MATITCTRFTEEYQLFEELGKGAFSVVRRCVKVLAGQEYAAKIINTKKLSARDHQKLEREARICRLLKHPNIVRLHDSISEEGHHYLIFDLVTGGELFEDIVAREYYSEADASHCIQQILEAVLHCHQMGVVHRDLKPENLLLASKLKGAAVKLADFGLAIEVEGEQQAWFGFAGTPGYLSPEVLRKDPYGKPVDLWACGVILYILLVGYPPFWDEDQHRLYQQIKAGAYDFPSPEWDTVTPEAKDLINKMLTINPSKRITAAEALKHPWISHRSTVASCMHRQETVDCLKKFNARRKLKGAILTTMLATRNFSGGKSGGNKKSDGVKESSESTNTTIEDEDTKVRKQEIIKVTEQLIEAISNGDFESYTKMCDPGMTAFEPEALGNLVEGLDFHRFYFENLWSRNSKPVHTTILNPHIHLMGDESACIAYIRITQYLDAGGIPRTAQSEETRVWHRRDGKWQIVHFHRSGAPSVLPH
Sequence of Cyclin-dependent kinase 8 (P49336 whole entry): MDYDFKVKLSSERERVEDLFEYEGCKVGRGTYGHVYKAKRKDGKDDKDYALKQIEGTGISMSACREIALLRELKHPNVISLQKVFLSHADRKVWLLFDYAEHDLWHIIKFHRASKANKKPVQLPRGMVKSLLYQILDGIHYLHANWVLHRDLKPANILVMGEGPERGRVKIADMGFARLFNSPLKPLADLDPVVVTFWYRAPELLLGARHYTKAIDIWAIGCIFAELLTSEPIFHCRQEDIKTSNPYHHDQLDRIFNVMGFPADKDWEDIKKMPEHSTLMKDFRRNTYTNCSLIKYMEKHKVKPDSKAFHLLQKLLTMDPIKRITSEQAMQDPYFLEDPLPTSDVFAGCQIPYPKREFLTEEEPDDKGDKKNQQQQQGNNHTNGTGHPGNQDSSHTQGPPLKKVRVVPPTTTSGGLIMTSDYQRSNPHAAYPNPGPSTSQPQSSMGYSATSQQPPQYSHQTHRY
Sequence of Aurora kinase B (Q96GD4 whole entry): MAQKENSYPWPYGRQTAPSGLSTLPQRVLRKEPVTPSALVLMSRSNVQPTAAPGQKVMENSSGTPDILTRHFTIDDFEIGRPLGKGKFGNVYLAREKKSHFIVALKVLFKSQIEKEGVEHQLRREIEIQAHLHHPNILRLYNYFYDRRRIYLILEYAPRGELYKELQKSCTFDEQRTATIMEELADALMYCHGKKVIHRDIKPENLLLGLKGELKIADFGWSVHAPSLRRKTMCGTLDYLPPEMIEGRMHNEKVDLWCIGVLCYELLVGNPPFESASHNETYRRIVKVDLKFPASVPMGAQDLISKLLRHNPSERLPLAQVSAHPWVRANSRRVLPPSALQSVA
Sequence of Platelet-derived growth factor receptor alpha (P16234 whole entry): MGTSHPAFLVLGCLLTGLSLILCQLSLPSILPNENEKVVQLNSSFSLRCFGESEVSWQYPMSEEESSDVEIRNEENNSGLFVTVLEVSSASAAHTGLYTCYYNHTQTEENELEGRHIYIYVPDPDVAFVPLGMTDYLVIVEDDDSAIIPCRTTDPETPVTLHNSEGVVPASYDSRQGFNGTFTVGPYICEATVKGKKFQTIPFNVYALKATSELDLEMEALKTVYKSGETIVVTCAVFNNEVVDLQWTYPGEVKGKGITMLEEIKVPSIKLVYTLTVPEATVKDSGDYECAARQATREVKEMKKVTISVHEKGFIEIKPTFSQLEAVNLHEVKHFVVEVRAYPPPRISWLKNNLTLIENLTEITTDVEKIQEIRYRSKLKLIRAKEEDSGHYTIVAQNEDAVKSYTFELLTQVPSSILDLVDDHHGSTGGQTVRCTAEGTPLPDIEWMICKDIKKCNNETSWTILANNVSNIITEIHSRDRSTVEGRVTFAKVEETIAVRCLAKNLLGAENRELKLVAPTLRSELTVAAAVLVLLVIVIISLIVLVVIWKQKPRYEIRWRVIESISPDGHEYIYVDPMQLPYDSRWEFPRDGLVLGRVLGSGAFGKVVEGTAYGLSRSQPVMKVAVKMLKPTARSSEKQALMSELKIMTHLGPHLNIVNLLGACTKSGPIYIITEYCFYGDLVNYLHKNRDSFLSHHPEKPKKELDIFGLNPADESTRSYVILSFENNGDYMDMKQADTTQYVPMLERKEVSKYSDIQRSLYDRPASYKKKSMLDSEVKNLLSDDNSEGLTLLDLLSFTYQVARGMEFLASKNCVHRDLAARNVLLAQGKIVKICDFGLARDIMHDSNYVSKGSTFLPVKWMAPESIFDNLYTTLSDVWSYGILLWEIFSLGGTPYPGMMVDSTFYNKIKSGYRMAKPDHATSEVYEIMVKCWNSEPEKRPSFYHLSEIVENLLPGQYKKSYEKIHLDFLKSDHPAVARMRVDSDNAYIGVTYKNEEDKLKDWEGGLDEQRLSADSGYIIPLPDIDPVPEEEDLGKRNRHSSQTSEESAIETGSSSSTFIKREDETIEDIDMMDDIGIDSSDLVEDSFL
Sequence of Fibroblast growth factor receptor 1 (P11362 whole entry): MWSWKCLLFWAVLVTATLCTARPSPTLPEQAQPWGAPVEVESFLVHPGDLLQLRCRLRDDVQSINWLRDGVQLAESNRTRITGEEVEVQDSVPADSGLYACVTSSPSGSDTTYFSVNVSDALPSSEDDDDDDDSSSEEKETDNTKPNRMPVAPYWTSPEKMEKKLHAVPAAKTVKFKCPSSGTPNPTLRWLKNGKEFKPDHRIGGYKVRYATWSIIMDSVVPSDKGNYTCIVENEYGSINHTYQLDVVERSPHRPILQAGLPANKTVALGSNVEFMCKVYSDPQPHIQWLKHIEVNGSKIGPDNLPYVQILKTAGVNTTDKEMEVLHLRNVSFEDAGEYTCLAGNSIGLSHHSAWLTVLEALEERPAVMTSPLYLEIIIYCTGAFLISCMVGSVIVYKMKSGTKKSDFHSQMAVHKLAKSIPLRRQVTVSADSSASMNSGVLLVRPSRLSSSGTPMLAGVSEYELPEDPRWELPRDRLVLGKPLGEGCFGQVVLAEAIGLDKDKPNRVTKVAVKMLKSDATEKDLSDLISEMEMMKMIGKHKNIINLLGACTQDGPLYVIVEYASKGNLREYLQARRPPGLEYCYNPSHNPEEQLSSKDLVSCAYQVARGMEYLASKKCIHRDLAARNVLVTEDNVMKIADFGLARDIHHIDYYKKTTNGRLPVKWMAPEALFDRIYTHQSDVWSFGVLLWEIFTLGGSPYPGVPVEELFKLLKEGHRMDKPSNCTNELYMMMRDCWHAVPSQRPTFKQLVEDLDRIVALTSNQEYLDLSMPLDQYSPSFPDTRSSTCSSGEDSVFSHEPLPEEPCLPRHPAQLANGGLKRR

CC(C)CC(=O)NC(c1cccs1)c1ccc2cccnc2c1O (stereo not drawn)
AC50 [1]: 3.71 µM (active)

CCOC(=O)c1ccc(NC2=CC(=O)C(=O)c3ccccc32)cc1
EC50 (Streptokinase A): 9.93 µM (active) | AC50 [1]: 4.3 µM (active) | EC50 (Protein RecA): 3.24 µM (active) | EC50 (Streptococcus): 9.24 µM (active) | EC50 [2]: 15.5 µM (active)

OC(CNCCC1C=Nc2ccccc21)Cn1c2ccc(Cl)cc2c2cc(Cl)ccc21 (stereo not drawn)
EC50 (Protein RecA): 9.52 µM (active) | EC50 [2]: 2.73 µM (active)

CCCCCCCCCCCCCCCC[N+](C)(C)C
EC50 (Streptokinase A): 19.6 µM (active) | EC50 (Protein RecA): 14.7 µM (active) | EC50 (Streptococcus): 7.77 µM (active)

NC1CCC(Nc2nc(Cl)cc(-c3c[nH]c4ncccc34)n2)CC1 (stereo not drawn)
Ki [3]: 3.98 µM (active) | pKi [3]: 5.4 | Ki [4]: 3.16 µM (active) | pKi [4]: 5.5 | Ki [5]: 1.26 µM (active) | pKi [5]: 5.9 | Ki [6]: 0.0316 µM (active) | pKi [6]: 7.5 | Ki [7]: 0.0501 µM (active) | pKi [7]: 7.3 | Ki [8]: 0.2 µM (active) | pKi [8]: 6.7 | Ki [9]: 3.16 µM (active) | pKi [9]: 5.5 | Ki (Aurora kinase B): 0.251 µM (active) | pKi (Aurora kinase B): 6.6 | Ki [10]: 0.000794 µM (active) | pKi [10]: 9.1 | Ki [11]: 0.00501 µM (active) | pKi [11]: 8.3 | Ki [12]: 0.126 µM (active) | pKi [12]: 6.9 | Ki [13]: 0.00126 µM (active) | pKi [13]: 8.9

O=C(O)C1CN(Cc2ccc(OCc3ccccc3)cc2Cl)C1
Ki [3]: > 3.98 µM (inactive) | Ki [4]: > 6.31 µM (inactive) | Ki [5]: > 2.51 µM (inactive) | Ki [6]: > 3.98 µM (inactive) | Ki [7]: > 3.98 µM (inactive) | Ki [8]: > 3.98 µM (inactive) | Ki [9]: > 3.98 µM (inactive) | Ki (Aurora kinase B): > 3.98 µM (inactive) | Ki [10]: > 2.51 µM (inactive) | Ki [11]: > 3.98 µM (inactive) | Ki [12]: > 2.51 µM (inactive) | Ki [13]: > 3.98 µM (inactive)

Cc1ccccc1-c1cc2c(nn1)-c1ccccc1C2=O
EC50 (Protein RecA): 0.891 µM (active)
